Reference: patent US20250346616A1 (DIZAL (JIANGSU) PHARMACEUTICAL CO., LTD., priority 2022, published 2025)

Columns and labels:
[1] = molecular target: Recombinant ROCK1 (Homo sapiens (Human), UniProt Q13464); assay: Lance Ultra Kinase Assay, ROCK1 inhibition; format: biochemical; conditions: ATP at Km, 30 min pre-incubation, 1 h reaction
Experimental: (§1) The inhibition potency of compounds against these enzymes was assessed using Lance Ultra Kinase Assay. In brief, recombinant kinases were pre-incubated in the presence or absence of compound at room temperature for 30 minutes. The reaction was initiated by the addition of the ATP (Km) and substrate peptide which could be phosphorylated by kinases in the reaction. After 1 h incubation, the reaction was stopped by the addition of the detection reagent mix containing EDTA. The fluorescence was measured at 615 nm and 665 nm, respectively with excitation wavelength at 320 nm. The calculated signal ratio of 665 nm/615 nm is proportional to the kinase activity.

[2] = molecular target: Recombinant ROCK2 (Homo sapiens (Human), UniProt O75116); assay: Lance Ultra Kinase Assay, ROCK2 inhibition; format: biochemical; conditions: ATP at Km, 30 min pre-incubation, 1 h reaction
Sequence of Recombinant ROCK2 (O75116 whole entry): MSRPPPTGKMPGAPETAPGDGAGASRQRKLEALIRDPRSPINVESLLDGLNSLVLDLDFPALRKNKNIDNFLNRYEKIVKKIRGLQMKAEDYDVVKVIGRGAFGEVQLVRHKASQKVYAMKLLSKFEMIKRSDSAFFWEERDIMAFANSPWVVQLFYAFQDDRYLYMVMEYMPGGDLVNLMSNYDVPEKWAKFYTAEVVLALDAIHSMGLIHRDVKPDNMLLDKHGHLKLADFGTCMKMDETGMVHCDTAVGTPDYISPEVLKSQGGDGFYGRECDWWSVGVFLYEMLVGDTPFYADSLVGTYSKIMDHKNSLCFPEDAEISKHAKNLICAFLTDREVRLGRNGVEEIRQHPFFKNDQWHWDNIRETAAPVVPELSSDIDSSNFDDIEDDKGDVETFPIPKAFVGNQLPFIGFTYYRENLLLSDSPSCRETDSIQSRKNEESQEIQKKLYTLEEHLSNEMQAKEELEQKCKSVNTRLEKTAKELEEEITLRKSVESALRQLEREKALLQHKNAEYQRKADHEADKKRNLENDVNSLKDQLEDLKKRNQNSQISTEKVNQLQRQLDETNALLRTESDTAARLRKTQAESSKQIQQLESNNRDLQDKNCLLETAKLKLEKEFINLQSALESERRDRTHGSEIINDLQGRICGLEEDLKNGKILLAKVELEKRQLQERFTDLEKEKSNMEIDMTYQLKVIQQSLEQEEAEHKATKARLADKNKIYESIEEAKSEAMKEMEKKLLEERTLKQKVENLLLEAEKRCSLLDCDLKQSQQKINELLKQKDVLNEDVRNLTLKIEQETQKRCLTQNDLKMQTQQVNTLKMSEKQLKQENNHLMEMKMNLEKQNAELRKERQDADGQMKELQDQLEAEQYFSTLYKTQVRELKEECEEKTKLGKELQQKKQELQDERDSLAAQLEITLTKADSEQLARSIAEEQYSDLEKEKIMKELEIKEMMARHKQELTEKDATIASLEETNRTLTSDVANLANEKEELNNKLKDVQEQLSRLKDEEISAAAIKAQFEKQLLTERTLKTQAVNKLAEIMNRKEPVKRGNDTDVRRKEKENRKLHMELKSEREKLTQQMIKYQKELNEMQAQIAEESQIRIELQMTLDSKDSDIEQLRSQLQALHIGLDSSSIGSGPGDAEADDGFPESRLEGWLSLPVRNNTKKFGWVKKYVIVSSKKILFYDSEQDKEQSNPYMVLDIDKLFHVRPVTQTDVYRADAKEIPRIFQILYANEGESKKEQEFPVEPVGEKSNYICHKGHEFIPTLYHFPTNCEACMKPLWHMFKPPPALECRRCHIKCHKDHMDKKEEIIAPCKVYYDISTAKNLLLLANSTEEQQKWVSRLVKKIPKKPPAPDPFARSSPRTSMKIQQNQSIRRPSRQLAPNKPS
Experimental: as §1

Sequence of Recombinant ROCK1 (Q13464 whole entry): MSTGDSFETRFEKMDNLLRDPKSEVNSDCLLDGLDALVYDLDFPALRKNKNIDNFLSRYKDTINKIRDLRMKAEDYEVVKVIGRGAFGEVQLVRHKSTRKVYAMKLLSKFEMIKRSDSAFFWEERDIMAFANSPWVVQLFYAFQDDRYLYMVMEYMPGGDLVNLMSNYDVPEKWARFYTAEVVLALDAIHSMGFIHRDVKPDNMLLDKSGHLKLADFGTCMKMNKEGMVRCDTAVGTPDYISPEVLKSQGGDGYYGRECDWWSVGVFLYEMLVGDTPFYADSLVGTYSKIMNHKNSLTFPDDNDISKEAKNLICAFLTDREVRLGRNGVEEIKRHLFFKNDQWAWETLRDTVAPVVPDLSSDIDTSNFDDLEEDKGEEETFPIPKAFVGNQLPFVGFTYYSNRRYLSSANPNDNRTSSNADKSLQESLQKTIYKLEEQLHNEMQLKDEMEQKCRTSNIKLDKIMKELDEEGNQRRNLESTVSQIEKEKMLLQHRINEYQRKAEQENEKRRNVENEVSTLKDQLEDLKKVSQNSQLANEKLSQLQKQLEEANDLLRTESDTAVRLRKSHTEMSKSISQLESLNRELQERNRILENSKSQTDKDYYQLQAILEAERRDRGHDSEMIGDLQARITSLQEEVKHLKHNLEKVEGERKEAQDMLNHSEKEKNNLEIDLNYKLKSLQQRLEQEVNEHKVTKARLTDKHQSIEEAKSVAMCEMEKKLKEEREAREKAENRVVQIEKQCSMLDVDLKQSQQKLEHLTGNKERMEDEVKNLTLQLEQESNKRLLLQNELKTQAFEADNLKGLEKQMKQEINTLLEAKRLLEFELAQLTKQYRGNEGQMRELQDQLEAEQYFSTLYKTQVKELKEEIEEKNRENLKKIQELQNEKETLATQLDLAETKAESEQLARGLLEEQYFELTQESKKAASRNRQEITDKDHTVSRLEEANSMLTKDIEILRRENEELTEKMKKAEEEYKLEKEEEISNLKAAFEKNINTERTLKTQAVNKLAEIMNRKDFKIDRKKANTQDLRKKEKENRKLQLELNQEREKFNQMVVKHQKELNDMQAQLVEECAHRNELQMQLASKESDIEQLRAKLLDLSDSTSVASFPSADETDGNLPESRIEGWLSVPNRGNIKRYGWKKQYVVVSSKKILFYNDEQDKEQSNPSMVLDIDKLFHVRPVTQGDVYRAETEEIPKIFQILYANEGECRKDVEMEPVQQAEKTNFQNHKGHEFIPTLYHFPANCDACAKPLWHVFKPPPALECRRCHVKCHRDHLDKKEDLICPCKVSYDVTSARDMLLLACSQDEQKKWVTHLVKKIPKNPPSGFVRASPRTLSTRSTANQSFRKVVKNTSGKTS

SMILES	IC50 [1]	IC50 [2]
CNC(=O)OCc1cccc(C(CN)C(=O)Nc2cccc3c(-c4cn[nH]c4)c[nH]c23)c1 (single isomer, unassigned) [Example 50, 3-(1-((3-(1H-pyrazol-4-yl)-1H-indol-7-yl)amino)-3-amino-1-oxopropan-2-yl)benzyl methylcarbamate]	0.00032 µM	0.00022 µM
CN1CCN(C(C(=O)Nc2cccc3c(-c4cn[nH]c4)c[nH]c23)c2ccccc2)CC1 (single isomer, unassigned) [Example 47, N-(3-(1H-pyrazol-4-yl)-1H-indol-7-yl)-2-(4-methylpiperazin-1-yl)-2-phenylacetamide]	0.201 µM	0.121 µM
COc1cccc(C(NC(=O)c2cccc3c(-c4cn[nH]c4)c[nH]c23)C2CCN(C)CC2)c1 (single isomer, unassigned) [Example 142, N-((3-methoxyphenyl) (1-methylpiperidin-4-yl)methyl)-3-(1H-pyrazol-4-yl)-1H-indole-7-carboxamide]	0.113 µM	0.037 µM
COc1cncc(C(CN2CCN(C)CC2)C(=O)Nc2cccc3c(-c4cn[nH]c4)c[nH]c23)c1 (single isomer, unassigned) [Example 110, N-(3-(1H-pyrazol-4-yl)-1H-indol-7-yl)-2-(5-methoxypyridin-3-yl)-3-(4-methylpiperazin-1-yl)propanamide]	0.0066 µM	0.0033 µM
NCc1ccc(C(CN)C(=O)Nc2cccc3c(-c4cn[nH]c4)c[nH]c23)cc1 (racemic) [Example 77, 3-amino-2-[4-(aminomethyl)phenyl]-N-[3-(1H-pyrazol-4-yl)-1H-indol-7-yl]propanamide]	0.084 µM	0.032 µM
N[C@@H](Cc1c[nH]c2ccccc12)C(=O)Nc1cccc2c(-c3cn[nH]c3)c[nH]c12 [Example 109, (2S)-2-amino-3-(1H-indol-3-yl)-N-[3-(1H-pyrazol-4-yl)-1H-indol-7-yl]propanamide]	0.015 µM	0.011 µM
NCC(C(=O)Nc1cccc2c(-c3cn[nH]c3)c[nH]c12)c1ccc(C(N)=O)cc1 (single isomer, unassigned) [Example 112, 4-(1-((3-(1H-pyrazol-4-yl)-1H-indol-7-yl)amino)-3-amino-1-oxopropan-2-yl)benzamide]	0.0013 µM	0.00047 µM
NCC(NC(=O)c1cccc2c(-c3cn[nH]c3)c[nH]c12)c1ccccc1 (racemic) [Example 134, N-(2-amino-1-phenylethyl)-3-(1H-pyrazol-4-yl)-1H-indole-7-carboxamide]	0.0026 µM	0.00088 µM
CN1CCN(CC(C(=O)Nc2cccc3c(-c4cn[nH]c4)c[nH]c23)c2ccccc2)CC1 (single isomer, unassigned) [Example 39, N-(3-(1H-pyrazol-4-yl)-1H-indol-7-yl)-3-(4-methylpiperazin-1-yl)-2-phenylpropanamide]	0.175 µM	0.116 µM
Cc1ccc(C(=O)OCc2ccc(C(CN)C(=O)Nc3cccc4c(-c5cn[nH]c5)c[nH]c34)cc2)c(C)c1 (single isomer, unassigned) [Example 5]	0.008 µM	0.0043 µM
COc1cccc(C(CN)C(=O)Nc2cccc3c(-c4cn[nH]c4)c[nH]c23)c1 (single isomer, unassigned) [Example 17, N-(3-(1H-pyrazol-4-yl)-1H-indol-7-yl)-3-amino-2-(3-methoxyphenyl)propanamide]	0.031 µM	0.015 µM
NCC(C(=O)Nc1cccc2c(-c3cn[nH]c3)c[nH]c12)c1ccc(CO)nc1 (single isomer, unassigned) [Example 61, N-(3-(1H-pyrazol-4-yl)-1H-indol-7-yl)-3-amino-2-(6-(hydroxymethyl)pyridin-3-yl)propanamide]	0.026 µM	0.0089 µM
CN(C)C(=O)c1ccc(C(CN)C(=O)Nc2cccc3c(-c4cn[nH]c4)c[nH]c23)cc1 (racemic) [Example 72, 4-(2-amino-1-{[3-(1H-pyrazol-4-yl)-1H-indol-7-yl]carbamoyl}ethyl)-N,N-dimethylbenzamide]	0.173 µM	0.067 µM
COc1cncc(C(CN2CCN(C)CC2)C(=O)Nc2cccc3c(-c4cn[nH]c4)c[nH]c23)c1 (single isomer, unassigned) [Example 111, N-(3-(1H-pyrazol-4-yl)-1H-indol-7-yl)-2-(5-methoxypyridin-3-yl)-3-(4-methylpiperazin-1-yl)propanamide]	0.297 µM	0.167 µM
NC(C(=O)Nc1cccc2c(-c3cn[nH]c3)c[nH]c12)C1CCCCC1 (racemic) [Example 122, N-(3-(1H-pyrazol-4-yl)-1H-indol-7-yl)-2-amino-2-cyclohexylacetamide]	0.011 µM	0.0089 µM
COc1cccc(C(CN2CCN(C)CC2)NC(=O)c2cccc3c(-c4cn[nH]c4)c[nH]c23)c1 (single isomer, unassigned) [Example 137, N-(1-(3-methoxyphenyl)-2-(4-methylpiperazin-1-yl)ethyl)-3-(1H-pyrazol-4-yl)-1H-indole-7-carboxamide]	0.149 µM	0.065 µM
NCC(C(=O)Nc1cccc2c(-c3cn[nH]c3)c[nH]c12)c1cccnc1 (single isomer, unassigned) [Example 33, N-(3-(1H-pyrazol-4-yl)-1H-indol-7-yl)-3-amino-2-(pyridin-3-yl)propanamide]	0.097 µM	0.05 µM

SMILES	IC50 [1]	IC50 [2]
NCC(C(=O)Nc1cccc2c(-c3cn[nH]c3)c[nH]c12)c1cccc(Cl)c1 (racemic) [Example 89, 3-amino-2-(3-chlorophenyl)-N-[3-(1H-pyrazol-4-yl)-1H-indol-7-yl]propanamide]	0.0012 µM	0.00066 µM
NCc1cccc(C(CN)C(=O)Nc2cccc3c(-c4cn[nH]c4)c[nH]c23)c1 (racemic) [Example 76, 3-amino-2-[3-(aminomethyl)phenyl]-N-[3-(1H-pyrazol-4-yl)-1H-indol-7-yl]propanamide]	0.014 µM	0.0079 µM
N#Cc1ccc(C(CN)C(=O)Nc2cccc3c(-c4cn[nH]c4)c[nH]c23)cc1 (single isomer, unassigned) [Example 58, N-(3-(1H-pyrazol-4-yl)-1H-indol-7-yl)-3-amino-2-(4-cyanophenyl)propanamide]	0.136 µM	0.048 µM
NCC(C(=O)Nc1cccc2c(-c3cn[nH]c3)c[nH]c12)c1cccc(CO)c1 (racemic) [Example 75, 3-amino-2-[3-(hydroxymethyl)phenyl]-N-[3-(1H-pyrazol-4-yl)-1H-indol-7-yl]propanamide]	0.204 µM	0.071 µM
NCC(Cc1ccccc1)NC(=O)c1cccc2c(-c3cn[nH]c3)c[nH]c12 (racemic) [Example 147, N-(1-amino-3-phenylpropan-2-yl)-3-(1H-pyrazol-4-yl)-1H-indole-7-carboxamide]	0.00088 µM	0.0004 µM
COc1cc(C(CN)C(=O)Nc2cccc3c(-c4cn[nH]c4)c[nH]c23)ccc1CO (racemic) [Example 101, 3-amino-2-[4-(hydroxymethyl)-3-methoxyphenyl]-N-[3-(1H-pyrazol-4-yl)-1H-indol-7-yl]propanamide]	0.0016 µM	0.00081 µM
N#Cc1cccc([C@H](N)C(=O)Nc2cccc3c(-c4cn[nH]c4)c[nH]c23)c1 (single isomer, unassigned) [Example 69, N-(3-(1H-pyrazol-4-yl)-1H-indol-7-yl)-2-amino-2-(3-cyanophenyl) acetamide]	0.021 µM	0.0092 µM
COc1cccc(C(CN2CCN(C)CC2)C(=O)Nc2cccc3c(-c4cn[nH]c4)c[nH]c23)c1 (single isomer, unassigned) [Example 36, N-(3-(1H-pyrazol-4-yl)-1H-indol-7-yl)-2-(3-methoxyphenyl)-3-(4-methylpiperazin-1-yl)propanamide]	0.321 µM	0.174 µM
CN1CCN(C(C(=O)Nc2cccc3c(-c4cn[nH]c4)c[nH]c23)c2ccccc2)CC1 (racemic) [Example 46, 2-(4-methylpiperazin-1-yl)-2-phenyl-N-[3-(1H-pyrazol-4-yl)-1H-indol-7-yl]acetamide]	0.004 µM	0.0023 µM
CN1CCC(C(C(=O)Nc2cccc3c(-c4cn[nH]c4)c[nH]c23)c2ccccc2)CC1 (single isomer, unassigned) [Example 44, N-(3-(1H-pyrazol-4-yl)-1H-indol-7-yl)-2-(1-methylpiperidin-4-yl)-2-phenylacetamide]	0.111 µM	0.07 µM
COc1cccc([C@H](N)C(=O)Nc2cccc3c(-c4cn[nH]c4)c[nH]c23)c1 [Example 41, (2S)-2-amino-2-(3-methoxyphenyl)-N-[3-(1H-pyrazol-4-yl)-1H-indol-7-yl]acetamide]	0.0054 µM	0.0035 µM
NCC(C(=O)Nc1cccc2c(-c3cn[nH]c3)c[nH]c12)c1ccc(O)cc1 (racemic) [Example 79, N-(3-(1H-pyrazol-4-yl)-1H-indol-7-yl)-3-amino-2-(4-hydroxyphenyl)-propanamide]	0.0029 µM	0.0017 µM
NCC(C(=O)Nc1cccc2c(-c3cn[nH]c3)c[nH]c12)c1cccc(C(=O)O)c1 (racemic) [Example 70, 3-(2-amino-1-{[3-(1H-pyrazol-4-yl)-1H-indol-7-yl]carbamoyl}ethyl)benzoic acid]	0.0022 µM	0.0006 µM
COc1cccc(C(NC(=O)c2cccc3c(-c4cn[nH]c4)c[nH]c23)C2CCN(C)CC2)c1 (single isomer, unassigned) [Example 141, N-((3-methoxyphenyl) (1-methylpiperidin-4-yl)methyl)-3-(1H-pyrazol-4-yl)-1H-indole-7-carboxamide]	0.331 µM	0.163 µM
NCC(C(=O)Nc1cccc2c(-c3cn[nH]c3)c[nH]c12)C1CCOC1 (racemic) [Example 94, N-(3-(1H-pyrazol-4-yl)-1H-indol-7-yl)-3-amino-2-(tetrahydrofuran-3-yl)propanamide]	0.0065 µM	0.003 µM
COc1ccc(C(CN)C(=O)Nc2cccc3c(-c4cn[nH]c4)c[nH]c23)cc1 (racemic) [Example 90, 3-amino-2-(4-methoxyphenyl)-N-[3-(1H-pyrazol-4-yl)-1H-indol-7-yl]propanamide]	0.0053 µM	0.00091 µM
